# Test results from US8835472B2, “Compounds, pharmaceutical compositions and uses thereof” (Boehringer Ingelheim International GmbH, priority 2010, dated 2014).
# pIC50: −log10 of the molar value.
# Biological target: human ACC2 (Homo sapiens (Human), UniProt O00763)
# Experiment: ACC2 assay, spectrophotometric 384 well assay (NADH-linked, coupled lactate dehydrogenase/pyruvate kinase reaction)
# Type: biochemical
# Conditions: hACC2 construct lacking the 128 N-terminal amino acids; 25° C., 340 nm over 15 minutes
# Experimental: Spectrophotometric 384 Well Assay
# Malonyl CoA formation by acetyl CoA carboxylases is stoichometrically linked to the consumption of ATP. ACC2 activity is measured in a NADH-linked kinetic method measuring ADP generated during the ACC reaction using a coupled lactate dehydrogenase/pyruvate kinase reaction.
# For biological testing, a human ACC2 construct which lacks the 128 amino acids at the N-terminus for increased solubility (nt 385-6966 in Genbank entry AJ575592) is cloned. The protein is then expressed in insect cells using a baculoviral expression system. Protein purification is performed by anion exchange.
# All compounds are dissolved in dimethyl sulfoxide (DMSO) to a concentration of 10 mM.
# Assay reactions are then carried out in 384-well plates, with hACC2 in an appropriate dilution and at final assay concentrations (f.c.) of 100 mM Tris (pH 7.5), 10 mM trisodium citrate, 25 mM KHCO3, 10 mM MgCl2, 0.5 mg/mL BSA, 3.75 mM reduced L-glutathione, 15 U/mL lactate dehydrogenase, 0.5 mM phosphoenolpyruvate, 15 U/mL pyruvate kinase, compounds at different concentrations at final DMSO concentrations of 1%.
# The enzymatic reaction is then started by addition of a mixture of NADH, acetyl Coenzyme A (both 200 μM f.c.) and ATP (500 uM f.c.). The decrease of the optical density (slope S) is then determined at 25° C. at a wavelength of 340 nm over 15 minutes in a spectrophotometric reader.
# Each assay microtiter plate contains wells with vehicle instead of compound as controls for the non-inhibited enzyme (100% CTL; ‘HIGH’) and wells without acetyl-CoA as controls for non-specific NADH degradation (0% CTL; ‘LOW’).
# The slope S is used for calculation of % CTL=(S(compound)−S(‘LOW’))/(S(‘HIGH’)−S(‘LOW’))*100. Compounds will give values between 100% CTL (no inhibition) and 0% CTL (complete inhibition).
# For IC50 value determination, the sample slope in the presence of the test compound after subtraction of the low controls (S(compound)−S(‘LOW’)) are used. An IC50 value is derived from the compound slopes at different dosages after subtraction of the low controls (S(compound)−S(‘LOW’)) by non-linear regression curve fitting (equation y=(A+((B−A)/(1+((C/x)^D))))).
# human ACC2, sequence (O00763 129-2458): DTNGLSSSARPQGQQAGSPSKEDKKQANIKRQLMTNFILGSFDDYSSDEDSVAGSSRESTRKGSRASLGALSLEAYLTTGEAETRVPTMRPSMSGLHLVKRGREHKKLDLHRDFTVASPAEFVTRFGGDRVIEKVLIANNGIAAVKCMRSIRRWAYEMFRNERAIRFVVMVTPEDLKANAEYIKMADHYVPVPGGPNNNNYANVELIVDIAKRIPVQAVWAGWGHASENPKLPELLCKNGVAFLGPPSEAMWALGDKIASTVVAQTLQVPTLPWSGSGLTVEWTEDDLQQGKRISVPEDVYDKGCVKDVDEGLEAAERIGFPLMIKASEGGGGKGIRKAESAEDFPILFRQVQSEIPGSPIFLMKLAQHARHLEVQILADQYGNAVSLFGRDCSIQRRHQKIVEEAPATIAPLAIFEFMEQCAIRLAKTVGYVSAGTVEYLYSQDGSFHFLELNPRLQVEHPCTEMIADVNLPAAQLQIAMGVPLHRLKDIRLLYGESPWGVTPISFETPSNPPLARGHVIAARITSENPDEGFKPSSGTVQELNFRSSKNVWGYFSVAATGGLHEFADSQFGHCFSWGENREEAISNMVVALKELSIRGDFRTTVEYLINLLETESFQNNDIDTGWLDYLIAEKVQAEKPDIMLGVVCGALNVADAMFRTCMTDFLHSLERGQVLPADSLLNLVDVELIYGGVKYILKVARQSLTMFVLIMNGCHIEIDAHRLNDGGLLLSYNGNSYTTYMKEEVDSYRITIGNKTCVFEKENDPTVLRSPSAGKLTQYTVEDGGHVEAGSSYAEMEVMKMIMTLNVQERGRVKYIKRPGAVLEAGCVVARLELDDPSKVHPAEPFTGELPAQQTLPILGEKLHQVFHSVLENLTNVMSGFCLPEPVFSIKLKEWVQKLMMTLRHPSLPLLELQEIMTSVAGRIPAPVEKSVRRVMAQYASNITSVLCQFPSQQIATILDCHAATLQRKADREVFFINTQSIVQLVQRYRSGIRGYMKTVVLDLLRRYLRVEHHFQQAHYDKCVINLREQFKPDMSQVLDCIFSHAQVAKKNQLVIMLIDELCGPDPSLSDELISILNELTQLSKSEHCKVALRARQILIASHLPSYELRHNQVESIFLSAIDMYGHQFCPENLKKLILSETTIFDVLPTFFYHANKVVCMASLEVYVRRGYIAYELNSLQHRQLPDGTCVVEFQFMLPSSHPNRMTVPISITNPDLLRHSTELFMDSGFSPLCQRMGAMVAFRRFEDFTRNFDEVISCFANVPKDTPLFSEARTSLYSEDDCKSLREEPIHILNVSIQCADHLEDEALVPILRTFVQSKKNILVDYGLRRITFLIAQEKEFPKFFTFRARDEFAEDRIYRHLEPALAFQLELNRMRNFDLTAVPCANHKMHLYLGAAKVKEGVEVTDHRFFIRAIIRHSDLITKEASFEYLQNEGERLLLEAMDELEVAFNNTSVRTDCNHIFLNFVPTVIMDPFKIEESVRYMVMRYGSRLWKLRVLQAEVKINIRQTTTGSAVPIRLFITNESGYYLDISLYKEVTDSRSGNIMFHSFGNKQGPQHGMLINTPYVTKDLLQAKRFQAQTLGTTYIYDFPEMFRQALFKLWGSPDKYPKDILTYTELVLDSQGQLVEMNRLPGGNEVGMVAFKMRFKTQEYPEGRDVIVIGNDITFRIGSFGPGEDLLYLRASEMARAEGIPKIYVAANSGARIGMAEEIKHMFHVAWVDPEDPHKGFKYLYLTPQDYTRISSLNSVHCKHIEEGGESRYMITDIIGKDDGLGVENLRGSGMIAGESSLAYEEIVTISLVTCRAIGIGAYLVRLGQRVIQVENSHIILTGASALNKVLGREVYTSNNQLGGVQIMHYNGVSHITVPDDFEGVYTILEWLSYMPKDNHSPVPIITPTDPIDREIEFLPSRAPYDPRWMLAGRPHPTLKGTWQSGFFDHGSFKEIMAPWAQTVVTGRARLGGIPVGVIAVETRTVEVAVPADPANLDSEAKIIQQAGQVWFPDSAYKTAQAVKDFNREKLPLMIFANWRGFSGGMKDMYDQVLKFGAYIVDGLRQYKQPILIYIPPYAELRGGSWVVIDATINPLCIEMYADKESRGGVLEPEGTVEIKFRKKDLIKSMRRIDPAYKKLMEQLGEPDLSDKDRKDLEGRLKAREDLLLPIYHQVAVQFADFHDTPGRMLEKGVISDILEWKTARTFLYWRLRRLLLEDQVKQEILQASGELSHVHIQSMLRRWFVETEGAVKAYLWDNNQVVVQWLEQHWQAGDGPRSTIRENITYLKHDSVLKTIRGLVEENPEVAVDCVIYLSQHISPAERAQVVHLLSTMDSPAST
row,pIC50,SMILES
1,5.13,CC(=O)NC(C)Cc1ccc(C#Cc2ccnc(N3CCN(S(C)(=O)=O)CC3)n2)cc1 (stereo not drawn) [Example 11.47]
2,6.27,CCCCC(=O)NC(C)Cc1ccc(C#Cc2ccc(OCC)cc2)cc1 (stereo not drawn) [Example 4.25]
3,4.66,CC(=O)NC(C)Cc1ccc(C#Cc2cccc(C(=O)N3CCC(C(=O)OC(C)(C)C)C3)c2)cc1 (stereo not drawn) [Example 8.49]
4,5.55,CCOc1ccc(C#Cc2ccc(CC(C)NC(=O)c3ccccc3)cc2)cc1 (stereo not drawn) [Example 4.19]
5,6.77,CC(=O)NC(C)Cc1ccc(C#Cc2cnc(Oc3ccccc3)nc2)cc1 (stereo not drawn) [Example 12.16]
6,6.03,CC(=O)NC(C)Cc1ccc(C#Cc2ccc(OC(C)C)nn2)cc1 (stereo not drawn) [Example 2.86]
7,5.29,CCOc1ccc(C#Cc2ccc(CC(C)NC(=O)c3c(C)noc3N)cc2)cc1 (stereo not drawn) [Example 4.52]
8,6.57,CCOc1cc(C#Cc2ccc(CC(C)NC(C)=O)cc2)ccn1 (stereo not drawn) [Example 2.28]
9,4.78,CC(=O)NC(C)Cc1ccc(C#Cc2ccc(C(=O)NCc3ccncc3)cc2)cc1 (stereo not drawn) [Example 8.11]
10,6.19,CC(=O)NC(C)Cc1ccc(C#Cc2ccc(N3CCOCC3)cc2)cc1 (stereo not drawn) [Example 2.73]
11,6.00,CCCOc1ncc(C#Cc2ccc(CC(C)NC(=O)OC)cc2)cn1 (stereo not drawn) [Example 12.26]
12,6.85,CCOc1ccc(C#Cc2ccc(CC(C)NC(=O)C3(C)CC3)cc2)cc1 (stereo not drawn) [Example 4.21]
13,5.92,"CSc1nccc(C#Cc2ccc(CC(C)NC(C)=O)cc2)n1 (stereo not drawn) [Example 14.1, N-{1-Methyl-2-[4-(2-methylsulfanyl-pyrimidin-4-ylethynyl)-phenyl]-ethyl}acetamide]"
14,6.01,CC(=O)NC(C)Cc1ccc(C#Cc2ccnc(OCC(C)C)n2)cc1 (stereo not drawn) [Example 12.4]
15,5.82,CCOc1ccc(C#Cc2ccc(CC(C)NC(=O)C(C)O)cc2)cc1 (stereo not drawn) [Example 4.5]
16,6.37,CC(=O)NC(C)Cc1ccc(C#Cc2cnc(OCC3(C)CC3)nc2)cc1 (stereo not drawn) [Example 12.13]
17,5.77,CCOc1ccc(C#Cc2ccc(CC(C)NC(=O)C(O)C(C)C)cc2)cc1 (stereo not drawn) [Example 4.30]
18,6.38,CC(=O)NC(C)c1ccc(C#Cc2ccc(OC(C)(C)C)cc2)cc1 (stereo not drawn) [Example 2.44]
19,6.34,"CC(=O)NC(C)Cc1ccc(C#Cc2ccc(-n3cccc3)cc2)cc1 (stereo not drawn) [Example 2.1, N-(1-(4-((4-(1H-Pyrrol-1-yl)phenyl)ethynyl)phenyl)propan-2-yl)acetamide]"
20,5.66,CC(Cc1ccc(C#Cc2cnc(N3CCC3)nc2)cc1)NC(=O)C1CC1 (stereo not drawn) [Example 13.51]
21,5.62,CC(Cc1ccc(C#Cc2cnc(OC(C)C)nc2)cc1)NC(=O)C1CC1 (stereo not drawn) [Example 12.25]
22,6.18,CCC(COC)Oc1ccc(C#Cc2ccc(CC(C)NC(C)=O)cc2)cc1 (stereo not drawn) [Example 9.35]
23,6.68,CCC(C)N(C)c1ncc(C#Cc2ccc(CC(C)NC(C)=O)cc2)cn1 (stereo not drawn) [Example 13.21]
24,7.00,CC(=O)NC(C)Cc1ccc(C#Cc2ccc(OCCC(F)(F)F)cc2)cc1 (stereo not drawn) [Example 9.32]

row,pIC50,SMILES
1,6.89,CC(=O)NC(C)Cc1ccc(C#Cc2cnc(NCc3ccccc3C)nc2)cc1 (stereo not drawn) [Example 13.55]
2,6.27,CC(=O)N[C@@H](C)c1ccc(C#Cc2cnc(OCc3ccccc3)nc2)cc1 [Example 12.60]
3,6.04,CC(=O)NC(C)Cc1ccc(C#Cc2cnc3ccccc3c2)cc1 (stereo not drawn) [Example 2.72]
4,4.72,CCOc1ccc(C#Cc2ccc(CC(C)NC(=O)c3nc[nH]n3)cc2)cc1 (stereo not drawn) [Example 4.73]
5,4.86,CCNc1nccc(C#Cc2ccc(CC(C)NC(C)=O)cc2)n1 (stereo not drawn) [Example 11.14]
6,5.92,CCOc1ccc(C#Cc2ccc(CC(C)NC(=O)c3cncnc3)cc2)cc1 (stereo not drawn) [Example 4.14]
7,5.85,CC(Cc1ccc(C#Cc2ccc(Oc3cncnc3)cc2)cc1)NC(=O)C1CC1 (stereo not drawn) [Example 23.11]
8,5.28,COc1ncccc1C#Cc1ccc(CC(C)NC(C)=O)cc1 (stereo not drawn) [Example 2.13]
9,6.17,CC(Cc1ccc(C#Cc2ccc(OC3CCC3)cc2)cc1)NC(=O)C1CC1 (stereo not drawn) [Example 14.29]
10,5.62,CC(=O)NC(C)Cc1ccc(C#Cc2ccc(C(=O)O)cc2)cc1 (stereo not drawn) [Example 1.5]
11,6.35,CCOc1ccc(C#Cc2ccc(CC(C)NC(=O)c3cc[nH]c3)cc2)cc1 (stereo not drawn) [Example 4.68]
12,5.43,CC(Cc1ccc(C#Cc2ccc(Oc3cncnc3)nc2)cc1)NC(=O)C1CC1 (stereo not drawn) [Example 14.27]
13,6.64,CCNC(=O)NC(C)Cc1ccc(C#Cc2ccc(OCC)cc2)cc1 (stereo not drawn) [Example 6.3]
14,5.31,CC(=O)NC(C)Cc1ccc(C#Cc2cnc(OCc3cccnc3)nc2)cc1 (stereo not drawn) [Example 12.56]
15,6.48,COc1ccc(C#Cc2ccc(CC(C)NC(C)=O)cc2)cc1 (stereo not drawn) [Example 2.30]
16,5.64,CCNC(=O)NCC(C)c1ccc(C#Cc2cnc(OC3CCC3)nc2)cc1 (stereo not drawn) [Example 33.3]
17,6.19,CCCOc1ccc(C#Cc2ccc(C(C)(C)CNC(C)=O)cc2)nc1 [Example 23.14]
18,6.92,"CCOc1ccc(C#Cc2ccc(CC(C)NC(C)=O)cc2)cc1 (stereo not drawn) [Example 1.28, N-{2-[4-(4-ethoxy-phenylethynyl)-phenyl]-1-methyl-ethyl}-acetamide]"
19,6.22,CCOc1cc(C#Cc2ccc(CC(C)NC(=O)N(C)C)cc2)ccn1 (stereo not drawn) [Example 20.2]
20,5.89,CC(=O)NC(C)Cc1ccc(C#Cc2ccnc(Oc3ccccc3)n2)cc1 (stereo not drawn) [Example 12.3]
21,6.46,CC(=O)NC(C)Cc1ccc(C#Cc2cnc(OC(C)CC(F)(F)F)nc2)cc1 (stereo not drawn) [Example 12.42]
22,5.42,CCOc1cccc(C#Cc2ccc(CC(C)NC(=O)C3CC3)cc2)c1 (stereo not drawn) [Example 14.52]
23,5.92,CC(=O)NC(C)Cc1ccc(C#Cc2cnc(N(C)C)nc2)cc1 (stereo not drawn) [Example 13.58]
24,5.43,CCOc1ccc(C#Cc2ccc(CC(C)NC(=O)C3CC(=O)N(C)C3)cc2)cc1 (stereo not drawn) [Example 4.62]

row,pIC50,SMILES
1,6.24,CC(Cc1ccc(C#Cc2ccc(C(C)C)cc2)cc1)NC(=O)C1CC1 (stereo not drawn) [Example 2.57]
2,6.00,CC(=O)N[C@@H](C)c1ccc(C#Cc2cnc(NC3CCC3)nc2)cc1 [Example 13.89]
3,5.82,CC(=O)NC(C)Cc1ccc(C#Cc2ccc(Oc3ccccc3)nn2)cc1 (stereo not drawn) [Example 2.77]
4,6.34,CC(CNC(=O)c1cn[nH]c1)c1ccc(C#Cc2cnc(OC3CCC3)nc2)cc1 (stereo not drawn) [Example 4.77]
5,6.89,CCCOc1ccc(C#Cc2ccc(CCC(C)NC(C)=O)cc2)cc1 (stereo not drawn) [Example 14.11]
6,5.80,CC(=O)NC(C)Cc1ccc(C#Cc2ccc(-c3cnco3)cc2)cc1 (stereo not drawn) [Example 23.7]
7,6.85,CCC(C)Oc1ccc(C#Cc2ccc(CCC(C)NC(C)=O)cc2)cc1 (stereo not drawn) [Example 14.15]
8,5.57,CC(Cc1ccc(C#Cc2cnc(NCc3cccnc3)nc2)cc1)NC(=O)C1CC1 (stereo not drawn) [Example 13.46]
9,6.02,CC(=O)N[C@@H](C)c1ccc(C#Cc2cnc(NC3CC3)nc2)cc1 [Example 13.90]
10,5.77,COC1(C)CCN(c2ncc(C#Cc3ccc(CC(C)NC(C)=O)cc3)cn2)CC1 (stereo not drawn) [Example 13.74]
11,6.66,CC(=O)NC(C)Cc1ccc(C#Cc2ccc3c(c2)OCCO3)cc1 (stereo not drawn) [Example 3.14]
12,6.44,CC(=O)NC(C)c1ccc(C#Cc2ccc(OC(C)C)cc2)cc1 (stereo not drawn) [Example 2.47]
13,6.03,CC(=O)NC(C)Cc1ccc(C#Cc2ccnc(N(C)c3ccccc3)n2)cc1 (stereo not drawn) [Example 11.6]
14,6.55,CCOc1ccc(C#Cc2ccc(CCC(C)NC(C)=O)cc2)cn1 (stereo not drawn) [Example 14.53]
15,5.92,CCCOc1ccc(C#Cc2ccc(C(C)NC(C)=O)cc2)cn1 (stereo not drawn) [Example 2.54]
16,6.74,CC(=O)NCC(C)(C)c1ccc(C#Cc2cnc(OC3CCC3)nc2)cc1 [Example 2.34]
17,5.37,CC(=O)NC(C)Cc1ccc(C#Cc2ccnc(OC3CCCC3)n2)cc1 (stereo not drawn) [Example 12.2]
18,6.64,CC(Cc1ccc(C#Cc2ccc(OC3CCCC3)nc2)cc1)NC(=O)C1CC1 (stereo not drawn) [Example 2.66]
19,7.15,"CCCOc1ccc(C#Cc2ccc(C(C)CNC(C)=O)cc2)cc1 (stereo not drawn) [Example 32.1, N-{2-[4-(4-Propoxy-phenylethynyl)-phenyl]-propyl}-acetamide]"
20,6.28,CC(=O)NC(C)Cc1ccc(C#Cc2ccc(OCCn3ccnc3)cc2)cc1 (stereo not drawn) [Example 9.37]
21,6.66,CCC(C)Nc1ncc(C#Cc2ccc(CC(C)NC(=O)N(C)C)cc2)cn1 (stereo not drawn) [Example 13.25]
22,6.42,CC(=O)NC(C)Cc1ccc(C#Cc2cnc(OC(C)C)nc2)cc1 (stereo not drawn) [Example 12.21]
23,5.92,CC(=O)NC(C)Cc1ccc(C#Cc2cnc(NCc3ccncc3)nc2)cc1 (stereo not drawn) [Example 13.82]

row,SMILES,pIC50
1,CCOc1ccc(C#Cc2ccc(CC(C)NC(=O)CF)cc2)cc1 (stereo not drawn) [Example 4.31],6.39
